Measurements taken from paper PMC10653547, “Synergistic effect of two antimicrobial peptides, BP203 and MAP-0403 J-2 with conventional antibiotics against colistin-resistant Escherichia coli and Klebsiella pneumoniae clinical isolates” (PLOS ONE, 2023).
≈ marks a conversion by molar mass, not a printed value. Positions of bridges follow the written chain, without caps; N, C: chain ends. Non-standard residues stand in square brackets, D forms with d. Residues, ends and D or L forms follow the SMILES beside them. *: point of attachment. X1 = CC[C@H](C)CCCCC(=O)*; Dab = NCC[C@H](N)C(=O)O

Columns and labels:
[1] = test system: MRC-5 (CCL-171) normal lung fibroblast cells; assay: Cytotoxicity assay using MTT; format: cell-based, human; settings: 24 h exposure
Description: MRC-5 (CCL-171) cell line, a representative of normal lung fibroblast cells, was used to investigate the cytotoxic effects of two AMPs, BP203 and MAP-0403 J-2. The cells were grown in Dulbecco’s Modified Eagle Medium (DMEM, Cytiva Life Sciences, Marlborough, MA, USA), supplemented with 10% fetal bovine serum (FBS), 1% penicillin (10,000 U/mL) and streptomycin (10,000 μg/mL) (Gibco, Waltham, MA, USA). 2×10^4 cells were seeded into each well of a 96-well plate and allowed to adhere for 24 h. Then, these cells were subjected to exposure to a medium containing a prepared two-fold serial dilution of BP203 or MAP-0403 J-2. […] 3-(4,5-Dimethylthiazol-2-yl)-2,5-Diphenyltetrazolium Bromide (MTT) was introduced into each well to achieve a concentration of 0.5 mg/mL followed by 4 h. incubation. Subsequently, formazan crystals were dissolved through the addition of 100 μL of a solubilizing solution composed of 10% SDS in 0.1 N HCl and the developed color was measured using a microtiter plate reader at an optical density (OD) of 570 nm. Cell viability was calculated as follows: (ODsample/ODcontrol) × 100.

[2] = test system: colistin-resistant E. coli clinical isolates; assay: Colistin susceptibility by broth microdilution (CLSI); format: cell-based, Escherichia coli; settings: for COL MIC: broth microdilution
Description: (§1) Ten non-duplicate clinical isolates of colistin-resistant E. coli (EC) and ten non-duplicate clinical isolates of colistin-resistant K. pneumoniae (KP) were obtained from the bacterial repository of the Division of Infectious Diseases and Tropical Medicine, Department of Medicine, Faculty of Medicine Siriraj Hospital, Mahidol University. The species identification was conducted through standard biochemical tests. Antimicrobial susceptibility testing was carried out using the disk diffusion method following CLSI guidelines. Additionally, the assessment of colistin resistance in all isolates was performed by broth microdilution following CLSI recommendations. […] The amino acid sequences of BP203 and MAP-0403 J-2 were retrieved from previous studies. These peptides are BP100 and MAP-0403 analogs, respectively. […] Antibiotic disks and defibrinated sheep blood were obtained from Oxoid (Basingstoke, UK). All culture media were purchased from Becton Dickinson (Frankin Lakes, NJ, USA). All chemicals were obtained from Sigma-Aldrich (St. Louis, MO, USA).

[3] = test system: colistin-resistant K. pneumoniae clinical isolates; assay: as above; format: cell-based, Klebsiella pneumoniae; settings: for COL MIC: broth microdilution
Description: as §1

[4] = test system: colistin-resistant E. coli clinical isolates; assay: Checkerboard assay for synergy testing; format: cell-based, Escherichia coli
How it was run: (§2)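 Two-fold serial dilutions of peptide and antibiotic, alone and in combination, in CAMHB against colistin-resistant clinical isolates at 5 × 10^5 CFU/mL, 37 °C for 20–24 h. MIC is the lowest concentration with no growth; FICI = sum of each agent's MIC in combination divided by its MIC alone.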

[5] = test system: colistin-resistant K. pneumoniae clinical isolates; assay: Checkerboard assay for synergy testing; format: cell-based, Klebsiella pneumoniae
How it was run: as §2

[6] = checkerboard BP203 x colistin, EC-01
[7] = checkerboard BP203 x colistin, EC-02
[8] = checkerboard BP203 x colistin, EC-03
[9] = checkerboard BP203 x colistin, EC-04
[10] = checkerboard BP203 x colistin, EC-05
[11] = checkerboard BP203 x colistin, EC-06
[12] = checkerboard BP203 x colistin, EC-07
[13] = checkerboard BP203 x colistin, EC-08
[14] = checkerboard BP203 x colistin, EC-09
[15] = checkerboard BP203 x colistin, EC-10
[16] = checkerboard MAP-0403 J-2 x colistin, EC-01
[17] = checkerboard MAP-0403 J-2 x colistin, EC-02
[18] = checkerboard MAP-0403 J-2 x colistin, EC-03
[19] = checkerboard MAP-0403 J-2 x colistin, EC-04
[20] = checkerboard MAP-0403 J-2 x colistin, EC-05
[21] = checkerboard MAP-0403 J-2 x colistin, EC-06
[22] = checkerboard MAP-0403 J-2 x colistin, EC-07
[23] = checkerboard MAP-0403 J-2 x colistin, EC-08
[24] = checkerboard MAP-0403 J-2 x colistin, EC-09
[25] = checkerboard MAP-0403 J-2 x colistin, EC-10
[26] = checkerboard BP203 x colistin, KP-01
[27] = checkerboard BP203 x colistin, KP-02
[28] = checkerboard BP203 x colistin, KP-03
[29] = checkerboard BP203 x colistin, KP-04
[30] = checkerboard BP203 x colistin, KP-05
[31] = checkerboard BP203 x colistin, KP-06
[32] = checkerboard BP203 x colistin, KP-07
[33] = checkerboard BP203 x colistin, KP-08
[34] = checkerboard BP203 x colistin, KP-09
[35] = checkerboard BP203 x colistin, KP-10
[36] = checkerboard MAP-0403 J-2 x colistin, KP-01
[37] = checkerboard MAP-0403 J-2 x colistin, KP-02
[38] = checkerboard MAP-0403 J-2 x colistin, KP-03
[39] = checkerboard MAP-0403 J-2 x colistin, KP-04
[40] = checkerboard MAP-0403 J-2 x colistin, KP-05
[41] = checkerboard MAP-0403 J-2 x colistin, KP-06
[42] = checkerboard MAP-0403 J-2 x colistin, KP-07
[43] = checkerboard MAP-0403 J-2 x colistin, KP-08
[44] = checkerboard MAP-0403 J-2 x colistin, KP-09
[45] = checkerboard MAP-0403 J-2 x colistin, KP-10

Work on `CC[C@H](C)[C@H](NC(=O)CN)C(=O)NCC(=O)N[C@@H](C)C(=O)N[C@H](C(=O)N[C@@H](CC(C)C)C(=O)N[C@@H](CCCCN)C(=O)N[C@H](C(=O)N[C@@H](CC(C)C)C(=O)N[C@H](C(=O)N[C@H](C(=O)NCC(=O)N[C@@H](CC(C)C)C(=O)N1CCC[C@H]1C(=O)N[C@@H](C)C(=O)N[C@@H](CC(C)C)C(=O)N[C@H](C(=O)N[C@@H](CO)C(=O)N[C@@H](Cc1c[nH]c2ccccc12)C(=O)N[C@H](C(=O)N[C@@H](CCCCN)C(=O)N[C@@H](CCCNC(=N)N)C(=O)N[C@@H](CCCCN)C(=O)N[C@@H](CCCNC(=N)N)C(=O)N[C@@H](CCC(N)=O)C(=O)N[C@@H](CCC(N)=O)C(N)=O)[C@@H](C)CC)[C@@H](C)CC)[C@@H](C)O)[C@@H](C)O)C(C)C)C(C)C` [melittin] yielded an IC50 [1] of 16.13 µg/mL (≈ 5.67 µM).

With `CC[C@H](C)CCCCC(=O)N[C@@H](CCN)C(=O)N[C@H](C(=O)N[C@@H](CCN)C(=O)N[C@H]1CCNC(=O)[C@H]([C@@H](C)O)NC(=O)[C@H](CCN)NC(=O)[C@H](CCN)NC(=O)[C@H](CC(C)C)NC(=O)[C@@H](CC(C)C)NC(=O)[C@H](CCN)NC1=O)[C@@H](C)O` [COL, colistin] (X1-[Dab]T[Dab][Dab][Dab][dL]L[Dab][Dab]T; lactam 4-C) the “%Resistance” value [2] was 100%, the “COL MIC” value ([2]; EC-01) was 4 µg/mL and the “COL MIC” value ([2]; EC-02) was 4 µg/mL. For the same compound, the “COL MIC” value ([2]; EC-03) was 4 µg/mL, the “COL MIC” value ([2]; EC-04) was 4 µg/mL and the “COL MIC” value ([2]; EC-05) was 4 µg/mL. The “COL MIC” value ([2]; EC-06) was 4 µg/mL, the “COL MIC” value ([2]; EC-07) was 8 µg/mL and the “COL MIC” value ([2]; EC-08) was 8 µg/mL. The “COL MIC” value ([2]; EC-09) was 16 µg/mL, the “COL MIC” value ([2]; EC-10) was 16 µg/mL and the “MICs, all isolates” value ([2]; all E. coli isolates) was ≥ 4 µg/mL. The “%Resistance” value [3] was 100%, the “COL MIC” value ([3]; KP-01) was 4 µg/mL and the “COL MIC” value ([3]; KP-02) was 8 µg/mL. The “COL MIC” value ([3]; KP-03) was 32 µg/mL, the “COL MIC” value ([3]; KP-04) was 16 µg/mL and the “COL MIC” value ([3]; KP-05) was 16 µg/mL. For the same compound, the “COL MIC” value ([3]; KP-06) was 16 µg/mL, the “COL MIC” value ([3]; KP-07) was 64 µg/mL and the “COL MIC” value ([3]; KP-08) was 128 µg/mL. For the same compound, the “COL MIC” value ([3]; KP-09) was 32 µg/mL, the “COL MIC” value ([3]; KP-10) was 128 µg/mL and the “MICs, all isolates” value ([3]; all K. pneumoniae isolates) was ≥ 4 µg/mL. The MIC alone [4, 6] was 4 µg/mL, the MIC combination [4, 6] was 2 µg/mL and the MIC alone [4, 7] was 4 µg/mL. The MIC combination [4, 7] was 2 µg/mL, the MIC alone [4, 8] was 4 µg/mL and the MIC combination [4, 8] was 1 µg/mL. It also gave an MIC alone [4, 9] of 4 µg/mL, an MIC combination [4, 9] of 2 µg/mL and an MIC alone [4, 10] of 4 µg/mL. For the same compound, the MIC combination [4, 10] was 2 µg/mL, the MIC alone [4, 11] was 4 µg/mL and the MIC combination [4, 11] was 4 µg/mL. For the same compound, the MIC alone [4, 12] was 8 µg/mL, the MIC combination [4, 12] was 4 µg/mL and the MIC alone [4, 13] was 8 µg/mL. For the same compound, the MIC combination [4, 13] was 8 µg/mL, the MIC alone [4, 14] was 16 µg/mL and the MIC combination [4, 14] was 8 µg/mL. It also gave an MIC alone [4, 15] of 16 µg/mL, an MIC combination [4, 15] of 2 µg/mL and an MIC alone [4, 16] of 4 µg/mL. It also gave an MIC combination [4, 16] of 0.5 µg/mL, an MIC alone [4, 17] of 4 µg/mL and an MIC combination [4, 17] of 1 µg/mL. The MIC alone [4, 18] was 4 µg/mL, the MIC combination [4, 18] was 0.5 µg/mL and the MIC alone [4, 19] was 4 µg/mL. The MIC combination [4, 19] was 2 µg/mL, the MIC alone [4, 20] was 4 µg/mL and the MIC combination [4, 20] was 1 µg/mL. The MIC alone [4, 21] was 4 µg/mL, the MIC combination [4, 21] was 2 µg/mL and the MIC alone [4, 22] was 8 µg/mL. For the same compound, the MIC combination [4, 22] was 2 µg/mL, the MIC alone [4, 23] was 8 µg/mL and the MIC combination [4, 23] was 2 µg/mL. For the same compound, the MIC alone [4, 24] was 16 µg/mL, the MIC combination [4, 24] was 4 µg/mL and the MIC alone [4, 25] was 16 µg/mL. It also gave an MIC combination [4, 25] of 4 µg/mL, an MIC alone [5, 26] of 4 µg/mL and an MIC combination [5, 26] of 4 µg/mL. For the same compound, the MIC alone [5, 27] was 8 µg/mL, the MIC combination [5, 27] was 8 µg/mL and the MIC alone [5, 28] was 32 µg/mL. The MIC combination [5, 28] was 32 µg/mL, the MIC alone [5, 29] was 16 µg/mL and the MIC combination [5, 29] was 16 µg/mL. It also gave an MIC alone [5, 30] of 16 µg/mL, an MIC combination [5, 30] of 16 µg/mL and an MIC alone [5, 31] of 16 µg/mL. The MIC combination [5, 31] was 16 µg/mL, the MIC alone [5, 32] was 64 µg/mL and the MIC combination [5, 32] was 0.5 µg/mL. For the same compound, the MIC alone [5, 33] was 128 µg/mL, the MIC combination [5, 33] was 128 µg/mL and the MIC alone [5, 34] was 32 µg/mL. The MIC combination [5, 34] was 16 µg/mL, the MIC alone [5, 35] was 128 µg/mL and the MIC combination [5, 35] was 64 µg/mL. It also gave an MIC alone [5, 36] of 4 µg/mL, an MIC combination [5, 36] of 4 µg/mL and an MIC alone [5, 37] of 8 µg/mL. It also gave an MIC combination [5, 37] of 8 µg/mL, an MIC alone [5, 38] of 32 µg/mL and an MIC combination [5, 38] of 32 µg/mL. For the same compound, the MIC alone [5, 39] was 16 µg/mL, the MIC combination [5, 39] was 16 µg/mL and the MIC alone [5, 40] was 16 µg/mL. For the same compound, the MIC combination [5, 40] was 16 µg/mL, the MIC alone [5, 41] was 16 µg/mL and the MIC combination [5, 41] was 16 µg/mL. It also gave an MIC alone [5, 42] of 64 µg/mL, an MIC combination [5, 42] of 128 µg/mL and an MIC alone [5, 43] of 128 µg/mL. It also gave an MIC combination [5, 43] of 128 µg/mL, an MIC alone [5, 44] of 32 µg/mL and an MIC combination [5, 44] of 32 µg/mL. For the same compound, the MIC alone [5, 45] was 128 µg/mL and the MIC combination [5, 45] was 64 µg/mL.
